Results: publication PMC8624133, “10th Trends in Medical Mycology Held on 8 to 11 October 2021, Aberdeen, Scotland, Organized by the European Confederation of Medical Mycology (ECMM)” (Journal of Fungi, 2021)
In brackets after ≈: the same amount, converted by molar mass. Read-outs that look alike come from different tables or passages of the source.

Assays:
[1] = tested on: C. parapsilosis; assay: EUCAST and CLSI susceptibility, multicenter; type: cell-based, Candida parapsilosis; details: Lodderomyces parapsilosis, seven laboratories
Description: (§1) Methods: We performed a multicenter study to determine the antifugal susceptibility to AmB from AmBisome (provided by Gilead) using both CLSI and EUCAST protocols. We tested this activity against the most relevant clinical fungal species.Representative isolates from different geographical regions were included in the study. Other antifungals were evaluated (fluconazole, itraconazole, voriconazole, posaconazole, caspofungin, micafungin and anidulafungin).

[2] = tested on: C. glabrata; assay: EUCAST and CLSI susceptibility, multicenter; type: cell-based, Candida glabrata; details: Nakaseomyces glabratus, seven laboratories
Description: as §1

[3] = tested on: C. auris; assay: EUCAST and CLSI susceptibility, multicenter; type: cell-based, Candida auris; details: Candidozyma auris, seven laboratories
Description: as §1

[4] = tested on: C. tropicalis; assay: EUCAST and CLSI susceptibility, multicenter; type: cell-based; details: Candida tropicalis, seven laboratories
Description: as §1

[5] = tested on: other filamentous fungi, including Talaromyces marneffei; assay: EUCAST and CLSI susceptibility, multicenter; type: cell-based; details: around, read-out: GM MIC, both methods
Description: as §1

[6] = tested on: Lomentospora prolificans and Cunninghamella bertholletiae; assay: EUCAST and CLSI susceptibility, multicenter; type: cell-based
Description: as §1

[7] = tested on: A. nidulans; assay: EUCAST and CLSI susceptibility, multicenter; type: cell-based; details: Aspergillus nidulans
Description: as §1

[8] = tested on: Aspergillus fumigatus; assay: EUCAST and CLSI susceptibility, multicenter; type: cell-based
Description: as §1

[9] = tested on: A. niger; assay: EUCAST and CLSI susceptibility, multicenter; type: cell-based; details: Aspergillus niger
Description: as §1

[10] = tested on: Candida albicans; assay: EUCAST and CLSI susceptibility, multicenter; type: cell-based; details: seven laboratories
Description: as §1

[11] = tested on: A. flavus; assay: EUCAST and CLSI susceptibility, multicenter; type: cell-based; details: Aspergillus flavus
Description: as §1

[12] = tested on: A. terreus; assay: EUCAST and CLSI susceptibility, multicenter; type: cell-based; details: Aspergillus terreus
Description: as §1

[13] = tested on: Candida isolates from animals; assay: CLSI M44-A2 disk diffusion; type: cell-based, Candida spp.; details: 10 µg discs; all 10 isolates
Description: Methods: Swab samples were plated on Sabouraud dextrose agar (SDA) with the addition of chloramphenicol. M. pachydermatis strains were identified by conventional laboratory methods and their ability to grow on SDA without lipid supplementation. The identification of Candida isolates was based on their phenotypic characterization and molecular methods using the universal ITS-1 and ITS-4 primers for amplification of the internal transcribed spacer 1 (ITS1), ITS2 regions and the 5.8S ribosomal DNA region followed by sequence-based identification. Susceptibility of Candida isolates was determined as described by the CLSI M44-A2 method using MCZ, CTZ and ITZ discs (10 µg, Neo-Sensitabs, Rosco, Denmark). Because the standard procedure for Candida susceptibility testing cannot be applied to M. pachydermatis, recommended modified protocol was used. The results were interpreted according to manufacturer’s guidelines.

[14] = tested on: A. fumigatus isolates (ARAF and azole susceptible); assay: Broth microdilution after EUCAST; type: cell-based; details: Aspergillus fumigatus; range, 16 ARAF and 4 azole susceptible isolates
Description: (§2) Materials & Methods: Olorofim activity has been analyzed at different stages (prior adhesion, 4 h, 12 h, 24 h and 48 h after inoculation) of biofilm formation of clinical ARAF strains (n = 16) as well as azole susceptible A. fumigatus isolates (n = 4) by using an XTT assay. Olorofim was applied in concentrations of a total, a half, a quarter and an eighth of the previously determined minimum inhibitory concentrations (MICs) by broth microdilution method after EUCAST.

[15] = tested on: A. fumigatus biofilm; assay: Antibiofilm activity, XTT assay; type: cell-based, Aspergillus fumigatus
Description: as §2

[16] = tested on: T. indotineae; details: eleven susceptible strains; ref Arendrup et al., 2020; cited from earlier work
[17] = tested on: T. rubrum; details: eight susceptible strains; ref Arendrup et al., 2020; cited from earlier work
[18] = tested on: clinical dermatophyte isolates; assay: Inhibition of dermatophyte biofilm formation; type: cell-based
Description: Materials and Methods: The study population consisted of 50 dermatophyte isolates that were collected from 2019 to 2020 from patients referred to the two mycology laboratory of Shiraz, Iran. The isolates were identified by ITS gene region sequencing. The suspension (equivalent to 0.5 McFarland) of the isolates was used to evaluate the ability of the isolates to form biofilms and also the effect of itraconazole, terbinafine and griseofulvin at concentrations of 2–32 μg/mL on inhibiting biofilm formation. Two optical microscope and a scanning electron microscope were used to study the microscopic structure of biofilms formed on the surface of 96-well plate wells.

[19] = tested on: dermatophyte strains; assay: Terbinafine modified breakpoint method; type: cell-based
Description: In vitro sensitivity testing against terbinafine was carried out using a modified breakpoint method according to Yamada et al., (2017) and Ebert et al., (2020).

[20] = tested on: clinical Trichophyton spp. isolates; assay: Checkerboard microdilution based on EUCAST; type: cell-based; details: for MIC: Trichophyton, read-out: geometric mean MIC, drug alone; for FICI of isolates exhibiting synergy / isolates with synergistic interactions: terbinafine + itraconazole
Description: Materials & Methods: The combination has been tested against 9 terbinafine-susceptible and 7 terbinafine-resistant clinical Trichophyton spp. isolates from India. In vitro interactions were evaluated by a microdilution checkerboard technique based on the EUCAST reference method for antifungal susceptibility testing. The mode of interaction between terbinafine and itraconazole was determined by the fractional inhibitory concentration index (FICI). The FICI was interpreted as FICI ≤ 0.5 = synergy, FICI > 0.5–4 = no interaction, and FICI > 4.0 = antagonism.

[21] = tested on: T. mentagrophytes isolates; details: cited from earlier work
[22] = tested on: Exophiala phaeomuriformis; assay: MIC, CLSI M27-A3; type: cell-based; details: read-out: MIC values
Description: Materials & Methods: The aviation kerosone samples came from an aviation company in Porto Alegre, state of Rio Grande do Sul, Brazil. The fungi isolation was carried out using the modified ASTM D6974-09 Standard. In this procedure, 500 mL kerosene samples were filtered, in triplicate, under aseptic conditions, under vacuum, using a 0.22 μm membrane (Millipore). After filtering, the membranes were deposited in potato dextrose agar culture medium. The plates were incubated in an oven at 30 °C for seven days. After this period, the colonies were isolated in new culture media for purification of the isolates. Molecular identification was performed through the sequencing of ITS DNA regions. The profile of sensitivity to clinical antifungals was assessed following protocols M27-A3 of the Clinical and Laboratory Standards Institute (CLSI).

[23] = tested on: Trichophyton spp.; assay: Agar-based screening method; type: cell-based; details: 0.5 McF, 5 days, 30 °C
Description: Inter-experimental variation was evaluated by testing 10 isolates on three different days. Single-centre validation: After determining the optimal conditions for the agar screening method, 112 molecularly identified Trichophyton spp. clinical isolates were tested.

[24] = tested on: T. mentagrophytes; assay: EUCAST E.DEF11.0 susceptibility
Description: Materials/methods: Samples from patients with clinically suspected dermatophytosis attending the outpatient Dermatology-Venereology Department of “Attikon” hospital during 2010–2019 were collected. Specimens were processed for direct microscopic examination (Blankophor in 10% KOH) and were inoculated on two plates each of Sabouraud’s dextrose agar supplemented with gentamicin + chloramphenicol and the other containing phenol red + cyclohexamide (incubation at 30 °C up to 4 weeks). Recovered isolates were identified to the genus and species level by standard phenotypic methods based on their colonial/microscopic morphology and biochemical properties (hydrolysis of urea) and were stored in 10% glycerol stocks at −70 °C.

[25] = tested on: dermatophyte standard strains and clinical isolates; assay: Broth microdilution MIC; type: cell-based, Trichophyton and Microsporum spp.; details: all tested strains
Description: Materials & Methods: The minimum inhibitory concentration (MIC) of honokiol was assessed by broth microdilution method against standard strains (Trichophyton rubrum ATCC 28188, Trichophyton mentagrophytes ATCC 9533), and clinical isolates (T. rubrum, T. ajelloi, Microsporum canis and M. gypseum). Evaluation of honokiol effect on ergosterol biosynthesis was assessed by high performance liquid chromatography. Checkerboard microtiter method was used to identify synergistic combinations of honokiol with terbinafine against Trichophyton rubrum ATCC 28188. The combinatorial effect was evaluated by calculating the fractional inhibitory concentration index (FICI).

[26] = tested on: T. rubrum and T. interdigitale; details: cited from earlier work
[27] = tested on: T. mentagrophytes; assay: EUCAST E.DEF 11.0 MIC; type: cell-based; details: Trichophyton mentagrophytes
[28] = tested on: T. rubrum and T. interdigitale isolates; assay: CLSI M38A2 broth microdilution
[29] = tested on: environmental yeasts from a lagoon; assay: organism not typed; type: cell-based
[30] = tested on: CDR1; assay: Rhodamine 6G (R6G) efflux
[31] = ECMM multinational study, risk factors for CAPA; type: in vivo, human; details: critically ill COVID-19 patients in ICU, 592 patients
Excerpt: Methods: The European Confederation of Medical Mycology (ECMM) conducted a multinational study including 20 centers from nine different countries to assess epidemiology, diagnosis, risk factors, treatment and outcome of CAPA. CAPA was defined according to ECMM/ISHAM consensus definitions.

[32] = 7 terbinafine-resistant isolates
[33] = 9 terbinafine-susceptible isolates

With `C[C@@H]1[C@H](O)[C@@H](C)/C=C/C=C/C=C/C=C/C=C/C=C/C=C/[C@H](O[C@@H]2O[C@H](C)[C@@H](O)[C@H](N)[C@@H]2O)C[C@@H]2O[C@](O)(C[C@@H](O)C[C@@H](O)[C@H](O)CC[C@@H](O)C[C@@H](O)CC(=O)O[C@H]1C)C[C@H](O)[C@H]2C(=O)O` [AmB from AmBisome, Amphotericin B] the MIC ([1]; read-out: GM MIC, CLSI) was 0.38 µg/mL (≈ 0.411 µM), the MIC ([1]; read-out: GM MIC, EUCAST) was 0.36 µg/mL (≈ 0.39 µM) and the MIC ([2]; read-out: GM MIC, CLSI) was 0.33 µg/mL (≈ 0.357 µM). For the same molecule, the MIC ([2]; read-out: GM MIC, EUCAST) was 0.34 µg/mL (≈ 0.368 µM), the MIC ([3]; read-out: GM MIC, CLSI) was 0.31 µg/mL (≈ 0.335 µM) and the MIC ([3]; read-out: GM MIC, EUCAST) was 0.46 µg/mL (≈ 0.498 µM). For the same molecule, the MIC ([4]; read-out: GM MIC, CLSI) was 0.31 µg/mL (≈ 0.335 µM), the MIC ([4]; read-out: GM MIC, EUCAST) was 0.36 µg/mL (≈ 0.39 µM) and the MIC [5] was 0.2 to 0.5 µg/mL (≈ 0.216 to 0.541 µM). The “activity, in words” value [6] was “lowest activity”, the MIC ([7]; read-out: GM MIC, CLSI) was 0.9 µg/mL (≈ 0.974 µM) and the MIC ([7]; read-out: GM MIC, EUCAST) was 1.7 µg/mL (≈ 1.84 µM). For the same molecule, the MIC ([8]; read-out: GM MIC, CLSI) was 0.64 µg/mL (≈ 0.693 µM), the MIC ([8]; read-out: GM MIC, EUCAST) was 0.65 µg/mL (≈ 0.703 µM) and the MIC ([9]; read-out: GM MIC, CLSI) was 0.36 µg/mL (≈ 0.39 µM). The MIC ([9]; read-out: GM MIC, EUCAST) was 0.22 µg/mL (≈ 0.238 µM), the MIC ([10]; read-out: GM MIC, CLSI) was 0.21 µg/mL (≈ 0.227 µM) and the MIC ([10]; read-out: GM MIC, EUCAST) was 0.23 µg/mL (≈ 0.249 µM). The MIC ([11]; read-out: GM MIC, CLSI) was 1.1 µg/mL (≈ 1.19 µM), the MIC ([11]; read-out: GM MIC, EUCAST) was 1.7 µg/mL (≈ 1.84 µM) and the MIC ([12]; read-out: GM MIC, CLSI) was 1.4 µg/mL (≈ 1.52 µM). It also gave an MIC ([12]; read-out: GM MIC, EUCAST) of 2 µg/mL (≈ 2.16 µM).

In the case of `Clc1ccccc1C(c1ccccc1)(c1ccccc1)n1ccnc1` [CTZ, clotrimazole], the susceptibility category [13] is reported as “susceptible”.

With `Cc1cc(-c2ccccc2)c(C(=O)C(=O)Nc2ccc(N3CCN(c4ncc(F)cn4)CC3)cc2)n1C` [olorofim] the MIC [14] was 0.008 to 0.03 µg/mL (≈ 0.016 to 0.0602 µM), the biofilm reduction ([15]; added prior to adhesion (t0) and right after adhesion (t4), compared to non-treated control) was “up to 96%” and the “effect on mature biofilm” value ([15]; t24 & t48) was “did not show an effect”.

In the case of `CN(C/C=C/C#CC(C)(C)C)Cc1cccc2ccccc12` [terbinafine], the MIC [16] is listed as “under 0.25 µg/µL”, the MIC [17] is listed as “under 0.25 µg/µL” and the IC50 ([18]; inhibition of biofilm formation, read-out: mean concentrations of IC50) is listed as 2.42 µg/mL (≈ 8.3 µM). For the same molecule, the “samples with IC50 in concentration <2” value ([18]; tested at 2–32 μg/mL) was 70%, the in vitro resistance ([19]; T. mentagrophytes ITS type VIII (T. indotineae), MIC ≥0.2 µg/mL counts as resistant) was “In vitro resistance” and the MIC ([19]; few strains, conspicuous but not resistant) was 0.1 µg/mL (≈ 0.343 µM). The “MIC range, drug alone” value [20, 32] was 2 to 64 µg/mL, the “MIC range, drug alone” value [20, 33] was 0.03125 to 0.5 µg/mL and the MIC [20, 32] was 11.9 µg/mL. For the same molecule, the MIC [20, 33] was 0.12 µg/mL, the “FICI of isolates exhibiting synergy” value ([20]; resistant isolates) was 0.032 to 0.3125 and the “isolates with synergistic interactions” value ([20]; resistant isolates) was 4/7. For the same molecule, the “FICI of isolates exhibiting synergy” value ([20]; susceptible isolates) was 0.3125 to 0.5, the “isolates with synergistic interactions” value ([20]; susceptible isolates) was 4/9 and the resistant isolates [21] was 30–70%. The MIC [22] was 0.0156 µg/mL (≈ 0.0535 µM), the “optimal agar concentration preventing growth of WT isolates” value ([23]; for high-level resistant isolates) was 0.125 mg/L and the “optimal agar concentration preventing growth of WT isolates” value ([23]; for low-level resistant isolates) was 0.01 mg/L. The “strains with elevated MICs” value ([24]; 9/24) was 37.5%, the MIC ([24]; Trichophyton mentagrophytes, read-out: MIC of strains with elevated MICs) was 0.25 to 8 µg/mL and the MIC [25] was 0.03 to 0.06 µg/mL. For the same molecule, the terbinafine resistance [26] was 1%, the MIC [27] was 0.25 to 8 µg/mL (≈ 0.858 to 27.5 µM) and the “isolates less susceptible by microdilution” value [28] was 2.44%. For the same molecule, the MIC ([28]; Trichophyton interdigitale) was 1 to 2 µg/mL (≈ 3.43 to 6.86 µM), the “isolates classified as resistant-like” value [29] was 39 and the MIC ([29]; read-out: MIC of resistant-like isolates) was 4 to 256 µg/mL.

For Milbemycin oxim A3, the R6G efflux phenotype [30] was “mimicked efflux phenotypes of cdr1∆ mutants”.

In the case of “tocilizumab: tocilizumab received by COVID-19 ICU patients”, the “hazard ratio for CAPA” value [31] is reported as 2.45.
